Test results as given in paper PMC11591356, “Immunomodulatory Effects of the Tobacco Defensin NaD1” (Antibiotics, 2024).
Ends that are not written are not given here.

Key:
PBMCs = experiment: Cytotoxicity assay, resazurin method, PBMCs; format: cell-based, human; details: for Cell viability: PBMCs, 24 h, resazurin
Description: (§1) Peripheral blood mononuclear cells (PBMCs) from healthy donors were purchased from American Type Culture Collection (ATCC PCS-800-011). Primary monocytes were isolated from PBMCs by adherence to the plastic surface. For that, PBMCs were thawed, resuspended in RPMI-1640 culture medium (Corning, Corning, NY, USA) without serum at a concentration of 2 × 10^6 cells/mL, seeded into the wells of a 24-well plate and placed in a humidified CO2-intubator (CellXpert C170i, Eppendorf, Hamburg, Germany) for 1 h. After that, non-adherent cells were removed from the wells and attached monocytes were thoroughly washed with PBS and cultured in a CO2-intubator in complete RPMI-1640 containing 10% human serum (HS Type AB, Capricorn Scientific, Ebsdorfergrund, Germany) and 1×antibiotic-antimycotic (1×AA) solution (Sigma, St. Louis, MO, USA).
(§2) The cytotoxic effects of the tobacco defensin NaD1 towards PBMCs or Caco-2 cells were investigated in 96-well plates using the resazurin method as previously described. In brief, 4 × 10^5 per well Caco-2 cells not in a monolayer as well as Caco-2 cells in a monolayer in DMEM/F12 (1:1) medium with 10% FBS or 2 × 10^6 PBMCs per well in RPMI-1640 also with 10% FBS were incubated with serial dilutions of NaD1 at final concentrations from 0.39 to 50 μM or from 2.1 to 180 μM for 24 h. After that, resazurin (Sigma, St. Louis, MO, USA) was added at a final concentration of 70 µM and the plates were incubated overnight (16–18 h). Untreated cells and cells treated by non-ionogenic detergent Triton X-100 were used as negative and positive controls, respectively. […] The cell viability was estimated by resorufin fluorescence registered at […] via the following equation: cell viability (%) = (Fsample/Fcontrol) × 100%. Experiment was carried out twice in duplicate.

[1] = system: Caco-2 cells in a monolayer; experiment: Cytotoxicity assay, resazurin method, Caco-2 cells in a monolayer; format: cell-based, human; details: 24 h; for Cell viability: Caco-2 monolayer
Experimental: as §2

[2] = system: umbilical vein endothelial cells (HUVEC); design: method as in PMID 28179997; details: read-out: IC50, MTT cell viability assay; cited from earlier work
primary monocytes = experiment: Multiplex xMAP assessment of cytokine production by primary monocytes; format: cell-based, human; details: monocytes + 2 μM NaD1, 24 h
Description: as §1
For the study of the immunomodulatory properties of NaD1, monocytes and immature dendritic cells (moDC) were seeded into the wells of a 24-well plate at densities of 4 × 10^5 and 1.3 × 10^5 cells per well, respectively, in complete RPMI-1640 with 10% HS and AA solution. Then, 24 h later, the culture medium was replaced by a fresh one either with 2 μM NaD1 for stimulation of the cells or without if for the control wells. The cultures were kept in a humidified CO2-intubator for 24 h and then the samples of the culture media were taken and frozen.
The absolute levels of 48 cytokines, chemokines and growth factors were determined at a protein level by multiplex xMAP technology (Luminex, Austin, TX, USA). For this, a MILLIPLEX Human Panel A kit (HCYTA-60K-PX48, Merck, Darmstadt, Germany) was used and the following 48 analytes were evaluated in two biological replications: sCD40L, EGF, CCL11/Eotaxin-1, FGF-basic/FGF-2, Flt-3 ligand, CX3CL1/Fractalkine, G-CSF, GM-CSF, GROα, IFNα2, IFN-γ, IL-1α, IL-1β, IL-1RA, IL-2, IL-3, IL-4, IL-5, IL-6, IL-7, CXCL8/IL-8, IL-9, IL-10, IL-12(p40), IL-12(p70), IL-13, IL-15, IL-17A/CTLA8, IL-17E/IL-25, IL-17F, IL-18, IL-22, IL-27, CXCL10/IP-10, CCL2/MCP-1, CCL7/MCP-3, M-CSF, CCL22/MDC, CXCL9/MIG, CCL3/MIP-1α, CCL4/MIP-1β, PDGF-AA, PDGF-AB/BB, CCL5/RANTES, TGF-α, TNF-α, TNF-β and VEGF-A. The fluorescent data were obtained on a MAGPIX system (Merck) operated with xPONENT 4.2 software (Merck). Final analysis was performed in MILLIPLEX Analyst v5.1 software (Merck).

## NaD1: Recombinant tobacco floral defensin NaD1 (UNIPROT Q8GTM0), obtained by heterologous expression in E. coli; FITC-labeled in the permeability assay (RECKTESNTFPGICITKPPCRKACISEKFTDGHCSKILRRCLCTKPC; cysteine pairing not given here; also: FITC label; UniProt Q8GTM0 26-72, looked up)
PBMCs; peptide 50 µM, twice in duplicate
  Cell viability: approximately 90%
PBMCs; peptide 180 μM
  Cell viability: more than 50%
PBMCs; peptide 12.5 µM, PBMCs and Caco-2
  Cytotoxic effect against the tested immune and epithelial cells: did not exhibit a cytotoxic effect
[1]; peptide 25 µM
  Cell viability: approximately 85%
[1]; peptide 50 µM
  Cell viability: ~70%
[1]; peptide 12.5 µM
  Cytotoxic effect on Caco-2 cells in a monolayer: no effects
[2]
  IC50: ~10 µM
Primary monocytes; control 0.36
  IL-2 absolute level: 0.51 pg/mL
Primary monocytes; control 0.73
  TGF-a absolute level: 0.73 pg/mL
Primary monocytes; control 0.81
  IFNg absolute level: 1.13 pg/mL
Primary monocytes; control 0.87
  IL-5 absolute level: <0.33↓ pg/ml
Primary monocytes; control 1.25
  IL-4 absolute level: 1.44 pg/mL
Primary monocytes; control 1.81
  IL-18 absolute level: 2.95 pg/mL
Primary monocytes; control 1.89
  TNFb absolute level: 1.49 pg/mL
Primary monocytes; control 2.8
  IL-12 (p40) absolute level: 2.8 pg/mL
Primary monocytes; control 4.96
  IL-15 absolute level: 4.19 pg/mL
Primary monocytes; control 5.17
  IL-9 absolute level: 3.78 pg/mL
Primary monocytes; control 5.33
  IL-1a absolute level: 7.2 pg/mL
Primary monocytes; control 6.18
  IL-10 absolute level: 6.66 pg/mL
Primary monocytes; control 10.38
  G-CSF absolute level: 6.59 pg/mL
Primary monocytes; control 10.99
  IL-13 absolute level: 5.29 pg/mL
Primary monocytes; control 12.11
  IL-1b absolute level: 12.11 pg/mL
Primary monocytes; control 12.18
  EGF absolute level: 14.11 pg/mL
Primary monocytes; control 13.22
  IFNa2 absolute level: 18.46 pg/mL
Primary monocytes; control 27.82
  IL-6 absolute level: 26.88 pg/mL
Primary monocytes; control 29.35
  MIP-1a absolute level: 27.88 pg/mL
Primary monocytes; control 29.57
  MIP-1b absolute level: 34.19 pg/mL
Primary monocytes; control 35.56
  PDGF-AA absolute level: 43.29 pg/mL
Primary monocytes; control 41.58
  Fractalkine absolute level: 32.26 pg/mL
Primary monocytes; control 45.68
  FGF-2 absolute level: 71.22 pg/mL
Primary monocytes; control 54.1
  VEGFa absolute level: 52.47 pg/mL
Primary monocytes; control 77.73
  TNFa absolute level: 79.94 pg/mL
Primary monocytes; control 82.06
  MCP-1 absolute level: 75.95 pg/mL
Primary monocytes; control 120.38
  MCP-3 absolute level: 119.63 pg/mL
Primary monocytes; control 121.25
  IL-27 absolute level: 94.48 pg/mL
Primary monocytes; control 184.29
  RANTES absolute level: 402.83 pg/mL
Primary monocytes; control 204.3
  IL-1RA absolute level: 204.3 pg/mL
Primary monocytes; control 290.24
  IP-10 absolute level: 390.23 pg/mL
Primary monocytes; control 342.86
  GROa absolute level: 261.06 pg/mL
Primary monocytes; control 879.89
  MDC absolute level: 759.82 pg/mL
Primary monocytes; control 984.71
  PDGF-AB/BB absolute level: 1457 pg/mL
Primary monocytes; control 1021
  MIG absolute level: 1301 pg/mL
Primary monocytes; control 9181
  IL-8 absolute level: 6023 pg/mL
Primary monocytes; control <0.32
  IL-7 absolute level: <0.32↓ pg/ml
Primary monocytes; control <0.61
  FLT-3L absolute level: 0.69 pg/mL
Primary monocytes; control <0.77
  IL-3 absolute level: <0.77↓ pg/ml
Primary monocytes; control <1.00
  IL-17A absolute level: <1.00↓ pg/ml
Primary monocytes; control <1.30
  GM-CSF absolute level: <1.30↓ pg/ml
Primary monocytes; control <1.79
  IL-12 (p70) absolute level: <1.79↓ pg/ml
Primary monocytes; control <3.80
  Eotaxin absolute level: <3.80↓ pg/ml
Primary monocytes; control <9.00
  IL-22 absolute level: <9.00↓ pg/ml
Primary monocytes; control <16.98
  IL-17F absolute level: <16.98↓ pg/ml
Primary monocytes; control <23.97
  M-GSF absolute level: <23.97↓ pg/ml
Primary monocytes; control <25.82
  IL-17E/IL-25 absolute level: <25.82↓ pg/ml
Primary monocytes; two biological replications, untreated control 151.36
  sCD40L absolute level: 151.36 pg/mL
